In one data set the target is OCT2 (Homo sapiens, UniProt O15244). Put plainly: In vitro transporter inhibition. Format: in vitro ADME.
Data set [1] in a line: Phase 1 DDI study 004 part B: midazolam. The settings on record: clinically relevant concentrations, daily dosing up to 10 mg.
A further data set concerns the target CYP2D6 (Homo sapiens, UniProt P10635). Put plainly: In vitro CYP inhibition. Format: in vitro ADME.
In the next data set the target is CYP1A2 (Homo sapiens, UniProt P05177). Put plainly: In vitro CYP inhibition. Format: in vitro ADME.
CYP1A2, sequence (P05177 whole entry): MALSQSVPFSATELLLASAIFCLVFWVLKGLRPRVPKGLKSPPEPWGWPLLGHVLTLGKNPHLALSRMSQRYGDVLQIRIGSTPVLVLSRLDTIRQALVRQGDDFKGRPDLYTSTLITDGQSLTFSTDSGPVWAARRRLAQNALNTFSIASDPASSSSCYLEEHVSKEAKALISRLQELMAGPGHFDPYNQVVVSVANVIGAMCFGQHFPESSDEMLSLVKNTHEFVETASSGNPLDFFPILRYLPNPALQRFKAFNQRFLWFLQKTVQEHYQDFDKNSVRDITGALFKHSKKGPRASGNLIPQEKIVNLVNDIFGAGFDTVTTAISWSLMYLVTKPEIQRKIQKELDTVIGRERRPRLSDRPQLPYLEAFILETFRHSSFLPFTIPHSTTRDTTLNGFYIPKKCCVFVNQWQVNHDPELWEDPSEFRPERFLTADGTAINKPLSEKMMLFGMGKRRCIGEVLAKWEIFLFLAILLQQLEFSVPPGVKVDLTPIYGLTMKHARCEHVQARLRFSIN
The target in another data set is CYP2A6 (Homo sapiens, UniProt P11509). The data set can be described thus: In vitro CYP inhibition. Format: in vitro ADME.
CYP2A6, sequence (P11509 whole entry): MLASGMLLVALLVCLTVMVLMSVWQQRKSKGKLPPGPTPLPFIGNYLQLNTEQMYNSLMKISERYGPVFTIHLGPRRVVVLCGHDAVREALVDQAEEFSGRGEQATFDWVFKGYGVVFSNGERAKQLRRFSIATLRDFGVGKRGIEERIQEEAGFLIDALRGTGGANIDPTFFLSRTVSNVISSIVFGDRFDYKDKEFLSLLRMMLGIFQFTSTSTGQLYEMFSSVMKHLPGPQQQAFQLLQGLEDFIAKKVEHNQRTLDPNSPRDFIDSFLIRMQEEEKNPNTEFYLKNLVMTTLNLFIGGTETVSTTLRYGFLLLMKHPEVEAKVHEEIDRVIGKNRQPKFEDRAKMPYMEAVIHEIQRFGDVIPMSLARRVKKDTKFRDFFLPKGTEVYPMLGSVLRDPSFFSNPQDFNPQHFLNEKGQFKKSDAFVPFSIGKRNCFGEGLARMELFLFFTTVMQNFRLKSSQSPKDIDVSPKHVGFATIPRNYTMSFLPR

The structures appear in SMILES notation.

OCT2, sequence (O15244 whole entry): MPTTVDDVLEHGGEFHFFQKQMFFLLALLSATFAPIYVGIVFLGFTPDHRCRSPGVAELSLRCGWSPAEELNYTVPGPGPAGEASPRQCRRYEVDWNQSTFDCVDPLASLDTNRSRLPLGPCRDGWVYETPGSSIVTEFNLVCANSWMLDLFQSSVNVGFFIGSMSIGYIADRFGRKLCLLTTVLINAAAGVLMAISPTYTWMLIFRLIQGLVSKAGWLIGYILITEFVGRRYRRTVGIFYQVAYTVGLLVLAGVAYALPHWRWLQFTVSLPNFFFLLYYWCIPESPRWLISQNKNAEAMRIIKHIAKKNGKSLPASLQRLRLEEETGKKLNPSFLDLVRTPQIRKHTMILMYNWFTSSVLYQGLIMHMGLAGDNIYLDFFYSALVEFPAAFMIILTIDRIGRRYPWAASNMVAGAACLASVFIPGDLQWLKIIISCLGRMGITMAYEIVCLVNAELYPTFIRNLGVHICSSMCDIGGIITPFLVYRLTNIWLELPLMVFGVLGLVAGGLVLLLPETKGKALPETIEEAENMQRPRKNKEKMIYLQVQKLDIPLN
CYP2D6, sequence (P10635 whole entry): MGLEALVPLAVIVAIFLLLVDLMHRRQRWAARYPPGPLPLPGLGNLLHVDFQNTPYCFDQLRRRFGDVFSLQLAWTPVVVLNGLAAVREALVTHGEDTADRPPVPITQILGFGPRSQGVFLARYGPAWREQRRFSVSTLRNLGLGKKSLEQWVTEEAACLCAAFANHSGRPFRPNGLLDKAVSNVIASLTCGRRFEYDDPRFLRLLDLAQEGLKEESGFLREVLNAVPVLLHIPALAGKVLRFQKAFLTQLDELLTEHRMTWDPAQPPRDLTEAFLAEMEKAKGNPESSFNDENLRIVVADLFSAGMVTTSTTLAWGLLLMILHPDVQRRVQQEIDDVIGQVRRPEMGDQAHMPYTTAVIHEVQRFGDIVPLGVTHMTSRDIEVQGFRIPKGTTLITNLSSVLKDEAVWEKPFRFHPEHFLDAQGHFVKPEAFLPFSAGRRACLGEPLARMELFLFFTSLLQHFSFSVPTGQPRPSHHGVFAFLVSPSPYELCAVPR

Consider `Cc1ncc(OC[C@@]2(c3cccc(F)c3)C[C@H]2C(=O)Nc2ccc(F)cn2)c(C)n1` [Lemborexant, (1R,2S)‐2‐{[(2,4‐dimethylpyrimidin‐5‐yl)oxy]methyl}‐2‐(3‐fluorophenyl)‐N‐(5‐fluoropyridin‐2‐yl)cyclopropanecarboxamide], for which the “inhibition of OCT2” value against OCT2 is on record as “do not inhibit”. Also, the “clinical effect on CYP2B6” value in data set [1] is on record as “has the potential to induce CYP2B6”. At CYP2D6, the “inhibition of CYP2D6” value is given as “do not inhibit”. Further, the “inhibition of CYP1A2” value on CYP1A2 was “do not inhibit”. The “inhibition of CYP2A6” value against CYP2A6 was “do not inhibit”.

These data come from PMC8248323 (Clinical Pharmacology in Drug Development, 2021).
